# Data published in patent US20230041563A1, “N-(1,3,4-OXADIAZOL-2-YL)ARYLCARBOXAMIDES OR SALTS THEREOF, PREPARATION METHODS, HERBICIDAL COMPOSITIONS AND USES THEREOF” (priority 2018, published 2023).
# Experiments:
# Type in all cases: in vivo
# Echinochloa crusgalli = experiment: Weeding effect in post-emergence stage (greenhouse pot spray)
# Summary of the method: (§1)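 Fresh-weight control rate was assessed 3 weeks after post-emergence spray-tower application at doses of 500–15 g a.i./ha, triplicate. Weeds were treated at the 2–3 leaf stage, 2 weeks post-sowing, using acetone solutions with Tween 80 plus 1.5 L/ha methyl oleate emulsifiable concentrate.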
# Digitaria sanguinalis [1] = experiment: as above
# Summary of the method: as §1
# Setaria viridis = experiment: as above; details: Table 3, dose 60 g a.i./ha
# Summary of the method: as §1
# Abutilon theophrasti [2] = experiment: as above
# Summary of the method: as §1
# Stellaria media = experiment: as above
# Summary of the method: as §1
# Amaranthus retroflexus = experiment: as above
# Summary of the method: as §1
# Leptochloa chinensis = experiment: Post-emergence control experiment of R configuration compound activity (weeds 4-5 leaf stage, 25 days)
# Protocol: (§2) Experiment on weeding effect in post-emergence stage: after 3-4 weeks of sowing, the test plants were treated in the 1.5-2 leaf stage of the directly sowed rice Longyang 16, and the 4-5 leaf stage of weeds. After the application of the compounds of the present invention, the plants were cultured for 25 days in the greenhouse, and then the experimental results of the weeding were counted.
# Digitaria sanguinalis [3] = experiment: as above
# Protocol: as §2
# Abutilon theophrasti [4] = experiment: as above
# Protocol: as §2
# Green Setaria viridis = experiment: as above
# Protocol: as §2
# weeds = experiment: Actual control effects and combined effects of mixtures of active ingredients (i) and (ii), stem-leaf treatment, Gowing method; details: stem-leaf treatment, 20 days
# Rice (Longyang 16) = experiment: Post-emergence control experiment of R configuration compound activity (directly sowed rice 1.5-2 leaf stage, 25 days)
# Protocol: as §2
# Longyang 16 is a representative and important long-grain fragrant rice in Northeast China. Long-grain fragrant rice is more sensitive to herbicides, especially to HPPD herbicides such as Mesotrione, Benzobicylon and the like, which are prone to causing phytotoxicity.
smiles,measurement,setting,value
Cc1nnc(NC(=O)c2ccc(C(F)(F)F)c([S+](C)[O-])c2F)o1 (racemic) [Compound 1-2],Echinochloa crusgah (activity level),"Echinochloa crusgalli; Table 2, dose 60 g a.i./ha",3 (Level 3: growth control rate is greater than or equal to 40% and less than 60%)
same,Echinochloa crusgah (activity level),"Echinochloa crusgalli; Table 2, dose 125 g a.i./ha",4 (Level 4: growth control rate is greater than or equal to 60% and less than 85%)
same,Echinochloa crusgah (activity level),"Echinochloa crusgalli; Table 2, dose 250 g a.i./ha",4 (Level 4: growth control rate is greater than or equal to 60% and less than 85%)
same,Echinochloa crusgah (activity level),"Echinochloa crusgalli; Table 2, dose 500 g a.i./ha",4 (Level 4: growth control rate is greater than or equal to 60% and less than 85%)
same,Echinochloa crusgali (activity level),"Echinochloa crusgalli; Table 3, dose 60 g a.i./ha",3 (Level 3: growth control rate is greater than or equal to 40% and less than 60%)
same,Digitaria sanguinalis (activity level),"Digitaria sanguinalis [1]; Table 2, dose 60 g a.i./ha",3 (Level 3: growth control rate is greater than or equal to 40% and less than 60%)
same,Digitaria sanguinalis (activity level),"Digitaria sanguinalis [1]; Table 2, dose 125 g a.i./ha",3 (Level 3: growth control rate is greater than or equal to 40% and less than 60%)
same,Digitaria sanguinalis (activity level),"Digitaria sanguinalis [1]; Table 2, dose 250 g a.i./ha",4 (Level 4: growth control rate is greater than or equal to 60% and less than 85%)
same,Digitaria sanguinalis (activity level),"Digitaria sanguinalis [1]; Table 2, dose 500 g a.i./ha",4 (Level 4: growth control rate is greater than or equal to 60% and less than 85%)
same,Digitaria sanguinahs (activity level),"Digitaria sanguinalis [1]; Table 3, dose 60 g a.i./ha",3 (Level 3: growth control rate is greater than or equal to 40% and less than 60%)
same,Setaria viridis (activity level),Setaria viridis,3 (Level 3: growth control rate is greater than or equal to 40% and less than 60%)
same,Abutilion theophrasti (activity level),"Abutilon theophrasti [2]; Table 2, dose 60 g a.i./ha",4 (Level 4: growth control rate is greater than or equal to 60% and less than 85%)
same,Abutilion theophrasti (activity level),"Abutilon theophrasti [2]; Table 2, dose 125 g a.i./ha",4 (Level 4: growth control rate is greater than or equal to 60% and less than 85%)
same,Abutilion theophrasti (activity level),"Abutilon theophrasti [2]; Table 2, dose 250 g a.i./ha",4 (Level 4: growth control rate is greater than or equal to 60% and less than 85%)
same,Abutilion theophrasti (activity level),"Abutilon theophrasti [2]; Table 2, dose 500 g a.i./ha",4 (Level 4: growth control rate is greater than or equal to 60% and less than 85%)
same,Abutilon theophrasti (activity level),"Abutilon theophrasti [2]; Table 3, dose 60 g a.i./ha",4 (Level 4: growth control rate is greater than or equal to 60% and less than 85%)
same,Stellaria media (activity level),"Stellaria media; Table 2, dose 60 g a.i./ha",3 (Level 3: growth control rate is greater than or equal to 40% and less than 60%)
same,Stellaria media (activity level),"Stellaria media; Table 2, dose 125 g a.i./ha",3 (Level 3: growth control rate is greater than or equal to 40% and less than 60%)
same,Stellaria media (activity level),"Stellaria media; Table 2, dose 250 g a.i./ha",4 (Level 4: growth control rate is greater than or equal to 60% and less than 85%)
same,Stellaria media (activity level),"Stellaria media; Table 2, dose 500 g a.i./ha",4 (Level 4: growth control rate is greater than or equal to 60% and less than 85%)
same,Amaranthus retroflexus (activity level),"Amaranthus retroflexus; Table 2, dose 60 g a.i./ha",4 (Level 4: growth control rate is greater than or equal to 60% and less than 85%)
same,Amaranthus retroflexus (activity level),"Amaranthus retroflexus; Table 2, dose 125 g a.i./ha",4 (Level 4: growth control rate is greater than or equal to 60% and less than 85%)
same,Amaranthus retroflexus (activity level),"Amaranthus retroflexus; Table 2, dose 250 g a.i./ha",4 (Level 4: growth control rate is greater than or equal to 60% and less than 85%)
same,Amaranthus retroflexus (activity level),"Amaranthus retroflexus; Table 2, dose 500 g a.i./ha",4 (Level 4: growth control rate is greater than or equal to 60% and less than 85%)
same,Leptochloa chinensis (60 g a.i./ha) inhibition rate,Leptochloa chinensis; 60 g a.i./ha,0%
same,Digitaria sanguinalis (30 g a.i./ha) inhibition rate,Digitaria sanguinalis [3]; 30 g a.i./ha,0%
same,Ablation theophrasti (30 g a.i./ha) inhibition rate,Abutilon theophrasti [4]; 30 g a.i./ha,60%
same,Green Setaria viridis (60 g a.i./ha) inhibition rate,Green Setaria viridis; 60 g a.i./ha,20%
same,Control effect of (i) alone at corresponding dose,"weeds; Cyperus difformis, (i) 1 g a.i./mu",7.8%
same,Control effect of (i) alone at corresponding dose,"weeds; Cyperus difformis, (i) 5 g a.i./mu",36.5%
same,Control effect of (i) alone at corresponding dose,"weeds; Digitaria sanguinalis, (i) 1 g a.i./mu",18.2%
same,Control effect of (i) alone at corresponding dose,"weeds; Digitaria sanguinalis, (i) 2 g a.i./mu",40.6%
same,Control effect of (i) alone at corresponding dose,"weeds; Digitaria sanguinalis, (i) 3 g a.i./mu",65.3%
same,Control effect of (i) alone at corresponding dose,"weeds; Echinochloa phyllopogon, (i) 1 g a.i./mu",12.6%
same,Control effect of (i) alone at corresponding dose,"weeds; Echinochloa phyllopogon, (i) 2 g a.i./mu",26.8%
same,Control effect of (i) alone at corresponding dose,"weeds; Echinochloa phyllopogon, (i) 3 g a.i./mu",53.7%
same,Control effect of (i) alone at corresponding dose,"weeds; Leptochloa chinensis, (i) 5 g a.i./mu",6.5%
same,Control effect of (i) alone at corresponding dose,"weeds; Leptochloa chinensis, (i) 15 g a.i./mu",30.6%
same,Control effect of (i) alone at corresponding dose,"weeds; Monochoria vaginalis, (i) 3 g a.i./mu",7.8%
same,Control effect of (i) alone at corresponding dose,"weeds; Monochoria vaginalis, (i) 5 g a.i./mu",7.8%
same,Control effect of (i) alone at corresponding dose,"weeds; Monochoria vaginalis, (i) 15 g a.i./mu",30.9%
same,Control effect of (i) alone at corresponding dose,"weeds; Sagittaria trifolia, (i) 1 g a.i./mu",19.7%
same,Control effect of (i) alone at corresponding dose,"weeds; Sagittaria trifolia, (i) 3 g a.i./mu",50.3%
CCC[S@+]([O-])c1c(C(F)(F)F)ccc(C(=O)Nc2nnc(C)o2)c1F [1-8 (S-configuration)],inhibition at 60 g/ha,"Leptochloa chinensis; Dinebra chinensis, post-emergence, read-out: Leptochloa chinensis (60 g a.i./ha) inhibition rate",0%
same,inhibition at 125 g/ha,"Leptochloa chinensis; Dinebra chinensis, post-emergence, read-out: Leptochloa chinensis (125 g a.i./ha) inhibition rate",10%
same,"activity against key weed Leptochloa chinensis / key weeds, in words",Leptochloa chinensis; in vivo,lower activity
same,inhibition at 30 g/ha,"Digitaria sanguinalis [3]; Digitaria sanguinalis, post-emergence, read-out: Digitaria sanguinalis (30 g a.i./ha) inhibition rate",0%
same,inhibition at 30 g/ha,"Abutilon theophrasti [4]; Abutilon theophrasti, post-emergence, read-out: Ablation theophrasti (30 g a.i./ha) inhibition rate",0%
same,inhibition at 30 g/ha,"Green Setaria viridis; Setaria viridis, post-emergence, read-out: Green Setaria viridis (30 g a.i./ha) inhibition rate",0%
same,inhibition at 60 g/ha,"Green Setaria viridis; Setaria viridis, post-emergence, read-out: Green Setaria viridis (60 g a.i./ha) inhibition rate",15%
same,Rice (Longyang 16) (250 g a.i./ha) inhibition rate,Rice (Longyang 16); 250 g a.i./ha,15%
same,Rice (Longyang 16) (500 g a.i./ha) inhibition rate,Rice (Longyang 16); 500 g a.i./ha,25%
same,"safety on rice (Longyang 16), in words",Rice (Longyang 16); in vivo,not safe
